Assay results: patent US10689380B1, “Crystalline forms of valbenazine ditosylate” (Farmhispania S.A., priority 2019, dated 2020)

Columns and labels:
[1] = Dynamic Vapour Sorption (DVS) analysis; type: physicochemical; conditions: 25° C., first cycle
Experimental: (§1) As used herein, DVS means Dynamic Vapour Sorption Analysis. Unless stated otherwise, DVSs were performed according to the following equipment and conditions: DVS-1000 instrument by Surface Measurement Systems was used. Samples were prepared by transferring them into an aluminum crucible and loading this into the DVS. A method utilizing two cycles (0% to 90% RH) and (90% to 0% RH) was run. The equilibrium condition for each step was set to a mass constancy of ±0.001% over 60 min and a maximum time limit of 1440 min for each step. This method was undertaken at 25° C.

[2] = Stability against temperature stress as indicated by DSC and DVS data; type: physicochemical
Experimental: as §1, with “C. As used herein, DSC means Differential Scanning calorimetry Analysis. Unless stated otherwise, DSCs were performed according to the following equipment and conditions: DSC 822e Mettler Toledo. Crucible: Aluminum crucible with a capacity of 40 μL and with hole the lid. Gas: Dry nitrogen 50 mL/min. Method standard: Heating from 30° C. to 300° C. at a rate of 10° C./min.” for “C.”

| Substance | polymorphic change associated with the sorption/desorption phenomenon in DVS, based on XRPD analysis ([1]; 70-80% relative humidity) | water sorption by the sample (DVS) ([1]; at 70% relative humidity) | water desorption by the sample (DVS) ([1]; at 80% relative humidity) | water sorption by the sample (DVS) ([1]; at 90% relative humidity) | stability against temperature stress for formulation into an oral solid dosage form [2] |
| --- | --- | --- | --- | --- | --- |
| valbenazine ditosylate [Form D] | transformation to polymorphic form II | approximately 6.0% | 4.0% |  |  |
| valbenazine ditosylate [Form E] |  |  |  | approximately 1.4% | stable against temperature stress |
